Measured values from publication PMC8609999, “A Phase I trial of talazoparib in patients with advanced hematologic malignancies” (International Journal of Hematologic Oncology, 2021).
Read-outs that look alike come from different tables or passages of the source. Marks after values point to notes of the source that are not given here.

Assays:
[1] = test system: patients with advanced hematologic malignancies (cohort 1: AML/MDS; cohort 2: CLL/MCL); format: in vivo, human
From the text: AEs were coded in accordance with The Medical Dictionary for Regulatory Activities, version 16.1. Treatment-emergent AEs (TEAEs) were defined as AEs that were new, increased in frequency, or worsened in severity, after the first talazoparib dose. AEs counted as drug-related had been classified by investigators as possibly or probably related to talazoparib.
All analyses in this open-label, dose-finding study were descriptive in nature. Descriptive summaries of continuous variables, including the mean, standard deviation (SD), median, range, and, where appropriate, 95% CI and/or interquartile range, were determined using the Statistical Analysis Software (SAS), version 9.2. Descriptive summaries of categorical variables included the number of patients and percentages. Data were summarized with respect to the dose level at which the patients started treatment. Cohorts were defined as all patients who began treatment at a given dose level.

[2] = Plasma pharmacokinetics after multiple daily talazoparib dosing; format: in vivo, human
Protocol: Plasma and urine samples were assayed for talazoparib concentrations by Covance Laboratories Inc., using validated high performance liquid chromatography with tandem mass spectrometry detection methods. The lower limits of quantitation for […] and urine were 5.0 pg/ml and 25.0 pg/ml, respectively. Evaluated PK parameters included maximum concentration (Cmax), minimum concentration (Cmin), time to maximum plasma concentration (Tmax), area under the curve from time 0 to last measurable concentration (AUC0–t), area under the curve from time 0 to 24 h post-dose (AUC0–24), amount of drug excreted into the urine from time 0 to 24 h (Ae0–24), fraction of administered drug excreted in the urine from time 0 to 24 h (Fe0–24), and average renal clearance from time 0 to 24 h (ARC0–24); ARC0–24 was calculated as (Ae0–24/AUC0–24). PK parameters were calculated using Phoenix™ WinNonlin® 6.1.
Summary statistics for plasma and urine talazoparib concentrations and PK parameters were calculated by grouping subjects in cohorts 1 and 2 together to provide a larger sample size at each dose level.

[3] = 1.35 mg/day, cycle 2 day 1, plasma, n = 3, median (range)

Cn1ncnc1[C@H]1c2n[nH]c(=O)c3cc(F)cc(c23)N[C@@H]1c1ccc(F)cc1 [talazoparib]
Any study drug-related AEs of CTCAE Grade 5 (death) ([1]; Cohort 1, 0.45 mg/day (n = 3)): 0 (0.0) n (%) | Any AEs of CTCAE Grade of 5 (death) ([1]; Cohort 1, 0.90 mg/day (n = 4)): 3 (75.0) n (%) | Any study drug-related AEs of CTCAE Grade 5 (death) ([1]; Cohort 1, 0.90 mg/day (n = 4)): 0 (0.0) n (%) | Any AEs ([1]; Cohort 1, 1.35 mg/day (n = 3)): 3 (100) n (%) | Any AEs leading to dose interruption or modification ([1]; Cohort 1, 1.35 mg/day (n = 3)): 0 (0.0) n (%) | Any AEs leading to study drug withdrawn ([1]; Cohort 1, 1.35 mg/day (n = 3)): 0 (0.0) n (%) | Any AEs of CTCAE Grade 3 or 4 ([1]; Cohort 1, 1.35 mg/day (n = 3)): 3 (100) n (%) | Any AEs of CTCAE Grade of 5 (death) ([1]; Cohort 1, 1.35 mg/day (n = 3)): 1 (33.3) n (%) | Any SAEs ([1]; Cohort 1, 1.35 mg/day (n = 3)): 2 (66.7) n (%) | Any SAEs of CTCAE Grade of 3 or 4 ([1]; Cohort 1, 1.35 mg/day (n = 3)): 2 (66.7) n (%) | Any study drug-related AEs ([1]; Cohort 1, 1.35 mg/day (n = 3)): 3 (100) n (%) | Any study drug-related AEs leading to dose interruption or modification ([1]; Cohort 1, 1.35 mg/day (n = 3)): 0 (0.0) n (%) | Any study drug-related AEs leading to study drug withdrawal ([1]; Cohort 1, 1.35 mg/day (n = 3)): 0 (0.0) n (%) | Any study drug-related AEs of CTCAE Grade 5 (death) ([1]; Cohort 1, 1.35 mg/day (n = 3)): 0 (0.0) n (%) | Any study drug-related AEs of CTCAE Grade of 3 or 4 ([1]; Cohort 1, 1.35 mg/day (n = 3)): 2 (66.7) n (%) | Any study drug-related SAEs ([1]; Cohort 1, 1.35 mg/day (n = 3)): 0 (0.0) n (%) | Any AEs of CTCAE Grade of 5 (death) ([1]; Cohort 1, 2.00 mg/day (n = 4)): 3 (75.0) n (%) | Any study drug-related AEs of CTCAE Grade 5 (death) ([1]; Cohort 1, 2.00 mg/day (n = 4)): 1 (25.0)^§ n (%) | Any AEs of CTCAE Grade of 5 (death) ([1]; Cohort 1, All (n = 25)): 12 (48.0) n (%) | Any study drug-related AEs of CTCAE Grade 5 (death) ([1]; Cohort 1, All (n = 25)): 1 (4.0)^§ n (%) | Any AEs of CTCAE Grade of 5 (death) ([1]; Cohort 2, 0.10 mg/day (n = 3)): 1 (33.3) n (%) | Any study drug-related AEs of CTCAE Grade 5 (death) ([1]; Cohort 2, 0.10 mg/day (n = 3)): 0 (0.0) n (%) | Any AEs of CTCAE Grade of 5 (death) ([1]; Cohort 2, 0.90 mg/day (n = 5)): 0 (0.0) n (%) | Any study drug-related AEs of CTCAE Grade 5 (death) ([1]; Cohort 2, 0.90 mg/day (n = 5)): 0 (0.0) n (%) | Any AEs of CTCAE Grade of 5 (death) ([1]; Cohort 2, All (n = 8)): 1 (12.5) n (%) | Any study drug-related AEs of CTCAE Grade 5 (death) ([1]; Cohort 2, All (n = 8)): 0 (0.0) n (%) | Deaths ([1]; both cohorts, N = 33, during study or within 30 days after last dose): 39.4% | Patients with Grade 3/4 TEAEs ([1]; human, in vivo): 84.8% | Patients with TEAEs leading to dose interruption/reduction related to study drug ([1]; human, in vivo): 30.3% | Patients with a Grade 3/4 SAE ([1]; human, in vivo): 51.5% | Patients with a drug-related SAE ([1]; human, in vivo): 9.1% | Patients with at least one TEAE leading to dose interruption and/or reduction ([1]; human, in vivo): 45.5% | Patients with drug-related Grade 3/4 TEAEs ([1]; human, in vivo): 42.4% | Patients with drug-related TEAEs (possibly or probably related) ([1]; human, in vivo): 69.7% | Patients with serious AEs (SAEs) ([1]; human, in vivo): 75.8% | TEAE: Fatigue ([1]; n = 33, All grades (Grade 1–4 only)): 13 (39.4) n (%) | AR (accumulation ratio) [2, 3]: 3.80 (3.28, 4.22) | Tmax [2, 3]: 1.03 (1.00, 4.00) hr | AUC(0-t) ([2]; human, in vivo, 1.35 mg/day, cycle 2 day 1, plasma, n = 3, geometric mean (geometric CV%), read-out: AUC0–24): 0.226 µg·h/mL | AUC(0-t) ([2]; human, in vivo, 1.35 mg/day, cycle 2 day 1, plasma, n = 3, geometric mean (geometric CV%), read-out: AUC0–t): 0.225 µg·h/mL | Cmax ([2]; human, in vivo, 1.35 mg/day, cycle 2 day 1, plasma, n = 3, geometric mean (geometric CV%)): 0.0197 µg/mL | Total exposure vs dose ([2]; in vivo): dose-proportional increases in total exposure
